Experimental data reported in ChEMBL document CHEMBL1148607, “A minimalist design approach to antimicrobial agents based on a thionin template” (J Med Chem, 2006).
Non-standard residues stand in square brackets, D forms with d. Residues, ends and D or L forms follow the SMILES beside them. GABA = NCCCC(=O)O

How the values were obtained:
Format in all cases: functional, organism-based
Botrytis cinerea = test: Antifungal activity against Botrytis cinerea
Xanthomonas campestris = test: Antibacterial activity against Xanthomonas campestris
[1] = system: Clavibacter michiganensis; test: Antibacterial activity against Clavibacter michiganensis
[2] = system: Plectosphaerella cucumerina; test: Antifungal activity against Plectosphaerella cucumerina
Sinorhizobium meliloti = test: Antibacterial activity against Rhizobium meliloti

EC50 (Botrytis cinerea) [µM]	EC50 (Xanthomonas campestris) [µM]	EC50 [1] [µM]	EC50 [2] [µM]	EC50 (Sinorhizobium meliloti) [µM]	Compound
4.1	> 50	5.13	15.7	> 50	CC[C@H](C)[C@H](NC(=O)[C@H](CCC(=O)O)NC(=O)[C@@H](N)CCCN=C(N)N)C(=O)NCCCC(=O)N[C@@H](C)C(=O)N[C@@H](CCCCN)C(=O)N[C@@H](CCCCN)C(=O)NCCCC(=O)N[C@@H](CCCN=C(N)N)C(=O)O (H-REI[GABA]AKK[GABA]R-OH)
1.6	> 50	3.27	3.97	> 50	CC(C)C[C@H](NC(=O)[C@H](CCCN=C(N)N)NC(=O)CCCNC(=O)[C@@H](NC(=O)[C@H](CC(N)=O)NC(=O)[C@H](Cc1ccc(O)cc1)NC(=O)CCCNC(=O)[C@H](CC(N)=O)NC(=O)[C@H](CCCN=C(N)N)NC(=O)[C@H](C)NC(=O)[C@H](Cc1c[nH]c2ccccc12)NC(=O)[C@@H](N)[C@@H](C)O)C(C)C)C(=O)N1CCC[C@H]1C(=O)O (H-TWARN[GABA]YNV[GABA]RLP-OH)
0.08	1.03	0.03	0.16	2.07	H-THRTRPALAARGASNCYSTYRASNVALCYSARGLEPRARGGLIIECYSALALYSLYSCYS-OH (cysteines drawn unpaired)
